Results reported in US20220081412A1, “QUINOLINYL-PYRAZINE-CARBOXAMIDE COMPOUNDS AND USES THEREOF” (The Regents of the University of Michigan, priority 2018, published 2022).

Tested on: MIA PaCa-2 cells
Test: Bru-seq analysis for nascent RNA synthesis (log2FC of genes, GSEA gene sets)
Type: cell-based, human
Conditions: 4 h, MIA PaCa-2 cells
[1] = top upregulated protein-coding genes
[2] = upregulated gene sets, HALLMARK

Cc1cc(NC(=O)c2cnc(N3CCNCC3)cn2)c2ncccc2c1 [J28, N-(6-methylquinolin-8-yl)-5-(piperazin-1-yl)pyrazine-2-carboxamide]
log2FC UAP1L1 [1]: 1.26 | log2FC ZC3H12A [1]: 1.27 | ES AMUNDSON_GAMMA_RADIATION_RESPONSE (upregulated gene sets, C2): 0.673 | ES BANDRES_RESPONSE_TO_CARMUSTIN_MGMT_48HR_DN (upregulated gene sets, C2): 0.612 | ES CAMPS_COLON_CANCER_COPY_NUMBER_UP (upregulated gene sets, C2): 0.653 | ES DACOSTA_UV_RESPONSE_VIA_ERCC3_UP (upregulated gene sets, C2): 0.506 | ES DAIRKEE_TERT_TARGETS_UP (upregulated gene sets, C2): 0.528 | ES DEBIASI_APOPTOSIS_BY_REOVIRUS_INFECTION_DN (upregulated gene sets, C2): 0.488 | ES DIRMEIER_LMPl_RESPONSE_EARLY (upregulated gene sets, C2): 0.670 | ES ENK_UV_RESPONSE_KERATINOCYTE_UP (upregulated gene sets, C2): 0.501 | ES FERREIRA_EWINGS_SARCOMA_UNSTABLE_VS_STABLE_DN (upregulated gene sets, C2): 0.623 | ES GINESTIER_BREAST_CANCER_ZNF217_AMPLIFIED_DN (upregulated gene sets, C2): 0.481 | ES HORTON_SREBF_TARGETS (upregulated gene sets, C2): 0.807 | ES KEGG_SYSTEMIC_LUPUS_ERYTHEMATOSUS (upregulated gene sets, C2): 0.661 | ES KIM_ALL_DISORDERS_DURATION_CORR_DN (upregulated gene sets, C2): 0.615 | ES LEONARD_HYPDXIA (upregulated gene sets, C2): 0.716 | ES MARTENS_TRETINOIN_RESPONSE_UP (upregulated gene sets, C2): 0.552 | ES NIKOLSKY_BREAST_CANCER_16P13_AMPLICON (upregulated gene sets, C2): 0.699 | ES NIKOLSKY_BREAST_CANCER_16Q24_AMPLICON (upregulated gene sets, C2): 0.706 | ES QI_HYPOXIA (upregulated gene sets, C2): 0.559 | ES REACTOME_AMYLOIDS (upregulated gene sets, C2): 0.710 | ES REACTOME_CHOLESTEROL_BIOSYNTHESIS (upregulated gene sets, C2): 0.821 | ES REACTOME_PEPTIDE_CHAIN_ELONGATION (upregulated gene sets, C2): 0.564 | ES REACTOME_RNA_POL_I_PROMOTER_OPENING (upregulated gene sets, C2): 0.769 | ES REACTOME_RNA_POL_I_TRANSCRIPTION (upregulated gene sets, C2): 0.622 | ES RICKMAN_METASTASIS_DN (upregulated gene sets, C2): 0.556 | ES SCHMIDT_POR_TARGETS_IN_LIMB_BUD_UP (upregulated gene sets, C2): 0.788 | NES AMUNDSON_GAMMA_RADIATION_RESPONSE (upregulated gene sets, C2): 2.280 | NES BANDRES_RESPONSE_TO_CARMUSTIN_MGMT_48HR_DN (upregulated gene sets, C2): 2.308 | NES CAMPS_COLON_CANCER_COPY_NUMBER_UP (upregulated gene sets, C2): 2.238 | NES DACOSTA_UV_RESPONSE_VIA_ERCC3_UP (upregulated gene sets, C2): 2.272 | NES DAIRKEE_TERT_TARGETS_UP (upregulated gene sets, C2): 2.400 | NES DEBIASI_APOPTOSIS_BY_REOVIRUS_INFECTION_DN (upregulated gene sets, C2): 2.211 | NES DIRMEIER_LMPl_RESPONSE_EARLY (upregulated gene sets, C2): 2.238 | NES ENK_UV_RESPONSE_KERATINOCYTE_UP (upregulated gene sets, C2): 2.338 | NES FERREIRA_EWINGS_SARCOMA_UNSTABLE_VS_STABLE_DN (upregulated gene sets, C2): 2.223 | NES GINESTIER_BREAST_CANCER_ZNF217_AMPLIFIED_DN (upregulated gene sets, C2): 2.203 | NES HORTON_SREBF_TARGETS (upregulated gene sets, C2): 2.353 | NES KEGG_SYSTEMIC_LUPUS_ERYTHEMATOSUS (upregulated gene sets, C2): 2.294 | NES KIM_ALL_DISORDERS_DURATION_CORR_DN (upregulated gene sets, C2): 2.457 | NES LEONARD_HYPDXIA (upregulated gene sets, C2): 2.369 | NES MARTENS_TRETINOIN_RESPONSE_UP (upregulated gene sets, C2): 2.244 | NES NIKOLSKY_BREAST_CANCER_16P13_AMPLICON (upregulated gene sets, C2): 2.231 | NES NIKOLSKY_BREAST_CANCER_16Q24_AMPLICON (upregulated gene sets, C2): 2.371 | NES QI_HYPOXIA (upregulated gene sets, C2): 2.230 | NES REACTOME_AMYLOIDS (upregulated gene sets, C2): 2.374 | NES REACTOME_CHOLESTEROL_BIOSYNTHESIS (upregulated gene sets, C2): 2.387 | NES REACTOME_PEPTIDE_CHAIN_ELONGATION (upregulated gene sets, C2): 2.220 | NES REACTOME_RNA_POL_I_PROMOTER_OPENING (upregulated gene sets, C2): 2.411 | NES REACTOME_RNA_POL_I_TRANSCRIPTION (upregulated gene sets, C2): 2.250 | NES RICKMAN_METASTASIS_DN (upregulated gene sets, C2): 2.370 | NES SCHMIDT_POR_TARGETS_IN_LIMB_BUD_UP (upregulated gene sets, C2): 2.303 | ES HALLMARK_ADIPOGENESIS [2]: 0.383 | ES HALLMARK_ANDROGEN_RESPONSE [2]: 0.356 | ES HALLMARK_APICAL_JUNCTION [2]: 0.359 | ES HALLMARK_APOPTOSIS [2]: 0.390 | ES HALLMARK_BILE_ACID_METABOLISM [2]: 0.361 | ES HALLMARK_CHOLESTEROL_HOMEOSTASIS [2]: 0.656 | ES HALLMARK_COAGULATION [2]: 0.474 | ES HALLMARK_DNA_REPAIR [2]: 0.336 | ES HALLMARK_ESTROGEN_RESPONSE_EARLY [2]: 0.354 | ES HALLMARK_ESTROGEN_RESPONSE_LATE [2]: 0.335 | ES HALLMARK_FATTY_ACID_METABOLISM [2]: 0.392 | ES HALLMARK_GLYCOLYSIS [2]: 0.321 | ES HALLMARK_HEME_METABOLISM [2]: 0.367 | ES HALLMARK_HYPOXIA [2]: 0.479 | ES HALLMARK_MTORC1_SIGNALING [2]: 0.436 | ES HALLMARK_MYOGENESIS [2]: 0.560 | ES HALLMARK_NOTCH_SIGNALING [2]: 0.494 | ES HALLMARK_OXIDATIVE_PHOSPHORYLATION [2]: 0.351 | ES HALLMARK_P53_PATHWAY [2]: 0.471 | ES HALLMARK_PEROXISOME [2]: 0.379 | ES HALLMARK_PI3K_AKT_MTOR_SIGNALING [2]: 0.426 | ES HALLMARK_UNFOLDED_PROTEIN_RESPONSE [2]: 0.433 | ES HALLMARK_UV_RESPONSE_UP [2]: 0.436 | ES HALLMARK_WNT_BETA_CATENIN_SIGNALING [2]: 0.481 | ES HALLMARK_XENOBIOTIC_METABOLISM [2]: 0.348 | NES HALLMARK_ADIPOGENESIS [2]: 1.653 | NES HALLMARK_ANDROGEN_RESPONSE [2]: 1.381 | NES HALLMARK_APICAL_JUNCTION [2]: 1.422 | NES HALLMARK_APOPTOSIS [2]: 1.615 | NES HALLMARK_BILE_ACID_METABOLISM [2]: 1.330 | NES HALLMARK_CHOLESTEROL_HOMEOSTASIS [2]: 2.374 | NES HALLMARK_COAGULATION [2]: 1.628 | NES HALLMARK_DNA_REPAIR [2]: 1.407 | NES HALLMARK_ESTROGEN_RESPONSE_EARLY [2]: 1.458 | NES HALLMARK_ESTROGEN_RESPONSE_LATE [2]: 1.358 | NES HALLMARK_FATTY_ACID_METABOLISM [2]: 1.605 | NES HALLMARK_GLYCOLYSIS [2]: 1.363 | NES HALLMARK_HEME_METABOLISM [2]: 1.548 | NES HALLMARK_HYPOXIA [2]: 1.984 | NES HALLMARK_MTORC1_SIGNALING [2]: 1.917 | NES HALLMARK_MYOGENESIS [2]: 2.098 | NES HALLMARK_NOTCH_SIGNALING [2]: 1.473 | NES HALLMARK_OXIDATIVE_PHOSPHORYLATION [2]: 1.548 | NES HALLMARK_P53_PATHWAY [2]: 1.986 | NES HALLMARK_PEROXISOME [2]: 1.483 | NES HALLMARK_PI3K_AKT_MTOR_SIGNALING [2]: 1.634 | NES HALLMARK_UNFOLDED_PROTEIN_RESPONSE [2]: 1.739 | NES HALLMARK_UV_RESPONSE_UP [2]: 1.773 | NES HALLMARK_WNT_BETA_CATENIN_SIGNALING [2]: 1.483 | NES HALLMARK_XENOBIOTIC_METABOLISM [2]: 1.415
